Source: PubChem BioAssay (NCI)
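Cultured in 96-well plates, cells were exposed to test compound for 48 hours across five concentrations. At the TGI there is no net growth.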

Columns and labels:
Assay in all cases: DTP human tumour cell line panel, 48 h
SF-295 CNS = system: SF-295 CNS
HCT-15 colon = system: HCT-15 colon
HT29 colon = system: HT29 colon
MDA-N = system: MDA-N
RPMI-8226 leukemia = system: RPMI-8226 leukemia
M14 melanoma = system: M14 melanoma
HL-60(TB) leukemia = system: HL-60(TB) leukemia
SW-620 colon = system: SW-620 colon
UO-31 renal = system: UO-31 renal
SNB-19 CNS = system: SNB-19 CNS

## COc1cc2nc3n(c(=O)c2cc1OC)CCCCC3
SF-295 CNS
  TGI: > 100 µM
HCT-15 colon
  TGI: > 100 µM
HT29 colon
  TGI: > 100 µM
MDA-N
  TGI: > 100 µM
RPMI-8226 leukemia
  TGI: > 100 µM
M14 melanoma
  TGI: > 100 µM
HL-60(TB) leukemia
  TGI: > 100 µM
SW-620 colon
  TGI: > 100 µM
UO-31 renal
  TGI: > 100 µM

## O=C1C(Cl)C(c2ccc([N+](=O)[O-])cc2)N1n1cnc2ccccc2c1=O (stereo unspecified)
SF-295 CNS
  TGI: 68.9 µM
HCT-15 colon
  TGI: > 100 µM
HT29 colon
  TGI: > 100 µM
M14 melanoma
  TGI: > 100 µM
SNB-19 CNS
  TGI: > 100 µM
SW-620 colon
  TGI: > 100 µM
UO-31 renal
  TGI: > 100 µM

## O=C(CSc1nnc(-c2ccc(N=Cc3ccc(Cl)cc3)cc2)o1)Nc1cccc([N+](=O)[O-])c1
SF-295 CNS
  TGI: > 100 µM
HCT-15 colon
  TGI: > 100 µM
HT29 colon
  TGI: > 100 µM
RPMI-8226 leukemia
  TGI: > 100 µM
M14 melanoma
  TGI: > 100 µM
HL-60(TB) leukemia
  TGI: > 100 µM
SNB-19 CNS
  TGI: > 100 µM
SW-620 colon
  TGI: > 100 µM
UO-31 renal
  TGI: > 100 µM

## CC(=O)OC12OC(C)(C3C(=O)N(c4ccccc4)C(=O)C31)N(c1ccccc1)C2=O (stereo unspecified)
SF-295 CNS
  TGI: > 100 µM
HCT-15 colon
  TGI: > 100 µM
HT29 colon
  TGI: > 100 µM
MDA-N
  TGI: > 100 µM
M14 melanoma
  TGI: > 100 µM
HL-60(TB) leukemia
  TGI: > 100 µM
SNB-19 CNS
  TGI: > 100 µM
SW-620 colon
  TGI: > 100 µM
UO-31 renal
  TGI: > 100 µM

## COc1cccc(/C=N/NC(=O)CN(C)C)c1O
SF-295 CNS
  TGI: > 100 µM
HCT-15 colon
  TGI: > 100 µM
HT29 colon
  TGI: > 100 µM
MDA-N
  TGI: > 100 µM
M14 melanoma
  TGI: > 100 µM
HL-60(TB) leukemia
  TGI: > 100 µM
SNB-19 CNS
  TGI: > 100 µM
SW-620 colon
  TGI: > 100 µM
UO-31 renal
  TGI: > 100 µM

## O=C1CCc2ccccc2O1
SF-295 CNS
  TGI: > 100 µM
HCT-15 colon
  TGI: > 100 µM
HT29 colon
  TGI: > 100 µM
MDA-N
  TGI: > 100 µM
RPMI-8226 leukemia
  TGI: > 100 µM
HL-60(TB) leukemia
  TGI: > 100 µM
SNB-19 CNS
  TGI: > 100 µM
SW-620 colon
  TGI: > 100 µM
UO-31 renal
  TGI: > 100 µM

## COC(=O)C1CCCN1C(=O)OC(C)(C)C (stereo unspecified)
SF-295 CNS
  TGI: > 100 µM
HCT-15 colon
  TGI: > 100 µM
HT29 colon
  TGI: > 100 µM
MDA-N
  TGI: > 100 µM
SNB-19 CNS
  TGI: > 100 µM
SW-620 colon
  TGI: > 100 µM
UO-31 renal
  TGI: > 100 µM

## CC(=O)Nc1ccc(C(=O)n2[nH]c(C)c(/C=C3\C(=O)C=Cc4ccccc43)c2=O)cc1
SF-295 CNS
  TGI: > 100 µM
HCT-15 colon
  TGI: > 100 µM
HT29 colon
  TGI: > 100 µM
RPMI-8226 leukemia
  TGI: > 100 µM
M14 melanoma
  TGI: > 100 µM
HL-60(TB) leukemia
  TGI: > 100 µM
SNB-19 CNS
  TGI: > 100 µM
SW-620 colon
  TGI: > 100 µM
UO-31 renal
  TGI: > 100 µM

## CC(=O)CC12NC(=O)N(C)N=C1N(C)C(=O)N(C)C2=O (stereo unspecified)
SF-295 CNS
  TGI: > 100 µM
HCT-15 colon
  TGI: > 100 µM
HT29 colon
  TGI: > 100 µM
MDA-N
  TGI: 43.3 µM
RPMI-8226 leukemia
  TGI: > 100 µM
M14 melanoma
  TGI: > 100 µM
HL-60(TB) leukemia
  TGI: > 100 µM
SW-620 colon
  TGI: > 100 µM
UO-31 renal
  TGI: > 100 µM

## CCSc1[nH]c(NC(=NC(C)C)NC(=O)c2ccccc2)c(C(N)=O)c1C(N)=O
SF-295 CNS
  TGI: > 10 µM
HCT-15 colon
  TGI: > 10 µM
HT29 colon
  TGI: > 10 µM
MDA-N
  TGI: > 10 µM
RPMI-8226 leukemia
  TGI: > 10 µM
M14 melanoma
  TGI: > 10 µM
HL-60(TB) leukemia
  TGI: > 10 µM
SW-620 colon
  TGI: > 10 µM

## COc1cc(CC(=O)c2cc3c(cc2-c2ccccc2)OCO3)cc(OC)c1OC
SF-295 CNS
  TGI: > 100 µM
HCT-15 colon
  TGI: > 100 µM
HT29 colon
  TGI: > 100 µM
M14 melanoma
  TGI: > 100 µM
HL-60(TB) leukemia
  TGI: > 100 µM
SNB-19 CNS
  TGI: > 100 µM
SW-620 colon
  TGI: > 100 µM
UO-31 renal
  TGI: > 100 µM

## COc1ccc(C=NCCCN=Cc2ccc(OC)cc2O)c(O)c1
SF-295 CNS
  TGI: 54.5 µM
HCT-15 colon
  TGI: > 100 µM
HT29 colon
  TGI: > 100 µM
RPMI-8226 leukemia
  TGI: > 100 µM
M14 melanoma
  TGI: > 100 µM
HL-60(TB) leukemia
  TGI: > 100 µM
SNB-19 CNS
  TGI: > 100 µM
SW-620 colon
  TGI: > 100 µM
UO-31 renal
  TGI: > 100 µM

## Cc1sc2nc3n(c(=O)c2c1C)N=C(c1ccccc1)CS3
SF-295 CNS
  TGI: > 100 µM
HCT-15 colon
  TGI: > 100 µM
HT29 colon
  TGI: > 100 µM
MDA-N
  TGI: > 100 µM
RPMI-8226 leukemia
  TGI: > 100 µM
HL-60(TB) leukemia
  TGI: > 100 µM
SW-620 colon
  TGI: > 100 µM
UO-31 renal
  TGI: > 100 µM

## O=C1C(=Cc2ccc([N+](=O)[O-])o2)C(=O)N(CCc2ccccc2)S(=O)(=O)N1CCc1ccccc1
SF-295 CNS
  TGI: > 100 µM
HCT-15 colon
  TGI: 30.2 µM
HT29 colon
  TGI: > 100 µM
RPMI-8226 leukemia
  TGI: > 100 µM
M14 melanoma
  TGI: 29 µM
HL-60(TB) leukemia
  TGI: 41.9 µM
SNB-19 CNS
  TGI: > 100 µM
SW-620 colon
  TGI: 33.9 µM
UO-31 renal
  TGI: > 100 µM

## COC(=O)[C@@H](NC(=O)c1ccc(CNC(=O)/C(C)=C/c2ccccc2)cc1)C(C)C
SF-295 CNS
  TGI: > 100 µM
HCT-15 colon
  TGI: > 100 µM
HT29 colon
  TGI: > 100 µM
MDA-N
  TGI: > 100 µM
RPMI-8226 leukemia
  TGI: > 100 µM
M14 melanoma
  TGI: > 100 µM
SNB-19 CNS
  TGI: > 100 µM
SW-620 colon
  TGI: > 100 µM
UO-31 renal
  TGI: > 100 µM

## Cc1ccc(S(=O)(=O)NCCCSCCO)cc1
SF-295 CNS
  TGI: > 100 µM
HCT-15 colon
  TGI: > 100 µM
HT29 colon
  TGI: > 100 µM
MDA-N
  TGI: > 100 µM
M14 melanoma
  TGI: > 100 µM
HL-60(TB) leukemia
  TGI: > 100 µM
SNB-19 CNS
  TGI: > 100 µM
SW-620 colon
  TGI: > 100 µM
UO-31 renal
  TGI: > 100 µM

## CCCCc1c2c(nc3c1CCCC3=O)CCCC2
SF-295 CNS
  TGI: > 100 µM
HCT-15 colon
  TGI: > 100 µM
HT29 colon
  TGI: > 100 µM
RPMI-8226 leukemia
  TGI: > 100 µM
M14 melanoma
  TGI: > 100 µM
HL-60(TB) leukemia
  TGI: > 100 µM
SNB-19 CNS
  TGI: > 100 µM
SW-620 colon
  TGI: > 100 µM
UO-31 renal
  TGI: > 100 µM

## Cc1cc(N)c2cc(NC(=O)Nc3ccc4nc(C)cc(N)c4c3)ccc2n1
SF-295 CNS
  TGI: > 100 µM
HCT-15 colon
  TGI: > 100 µM
HT29 colon
  TGI: > 100 µM
MDA-N
  TGI: > 100 µM
RPMI-8226 leukemia
  TGI: > 100 µM
M14 melanoma
  TGI: > 100 µM
SNB-19 CNS
  TGI: > 100 µM
SW-620 colon
  TGI: > 100 µM
UO-31 renal
  TGI: > 100 µM

## C[C@]12CCC(=O)C=C1CC[C@@H]1C2CC[C@@]2(C)C1CC[C@@H]2OC(=O)C12OC1CCC2=O (stereo partly specified)
SF-295 CNS
  TGI: 34.7 µM
HCT-15 colon
  TGI: 30.7 µM
HT29 colon
  TGI: 33.4 µM
RPMI-8226 leukemia
  TGI: 52.1 µM
M14 melanoma
  TGI: 32.9 µM
HL-60(TB) leukemia
  TGI: 33.5 µM
SNB-19 CNS
  TGI: 44.3 µM
SW-620 colon
  TGI: 32.1 µM
UO-31 renal
  TGI: 30.3 µM

## C=C(C)[C@@H]1CCC2=C(CC[C@]3(C)[C@@H]([C@@H](CCC=C(C)C)C(=O)O)[C@H](O)C[C@@]23C)[C@@]1(C)CCC(=O)O
SF-295 CNS
  TGI: > 100 µM
HCT-15 colon
  TGI: > 100 µM
HT29 colon
  TGI: > 100 µM
MDA-N
  TGI: > 100 µM
RPMI-8226 leukemia
  TGI: > 100 µM
M14 melanoma
  TGI: > 100 µM
SNB-19 CNS
  TGI: > 100 µM
SW-620 colon
  TGI: > 100 µM
UO-31 renal
  TGI: > 100 µM

## Brc1ccc(C[N+]23CN4CN(CN(C4)C2)C3)cc1
SF-295 CNS
  TGI: > 100 µM
HCT-15 colon
  TGI: 69 µM
RPMI-8226 leukemia
  TGI: 59.5 µM
M14 melanoma
  TGI: 33 µM
HL-60(TB) leukemia
  TGI: 58.2 µM
SNB-19 CNS
  TGI: > 100 µM
SW-620 colon
  TGI: 82.3 µM
UO-31 renal
  TGI: > 100 µM

## CN(C)C=Nc1c2c(nc3ccccc13)CCCC2
SF-295 CNS
  TGI: > 100 µM
HCT-15 colon
  TGI: > 100 µM
HT29 colon
  TGI: > 100 µM
MDA-N
  TGI: > 100 µM
RPMI-8226 leukemia
  TGI: > 100 µM
M14 melanoma
  TGI: > 100 µM
HL-60(TB) leukemia
  TGI: > 100 µM
SNB-19 CNS
  TGI: > 100 µM
UO-31 renal
  TGI: > 100 µM

## O=C1NC2OC(CO)C(O)C(O)C2O1 (stereo unspecified)
SF-295 CNS
  TGI: > 100 µM
HCT-15 colon
  TGI: > 100 µM
HT29 colon
  TGI: > 100 µM
M14 melanoma
  TGI: > 100 µM
HL-60(TB) leukemia
  TGI: > 100 µM
SNB-19 CNS
  TGI: > 100 µM
SW-620 colon
  TGI: > 100 µM
UO-31 renal
  TGI: > 100 µM

## O=C(NCCC1CN(S(=O)(=O)C(F)(F)F)c2ccccc21)OCc1ccccc1 (stereo unspecified)
SF-295 CNS
  TGI: > 100 µM
HCT-15 colon
  TGI: > 100 µM
HT29 colon
  TGI: > 100 µM
RPMI-8226 leukemia
  TGI: > 100 µM
M14 melanoma
  TGI: > 100 µM
SNB-19 CNS
  TGI: > 100 µM
SW-620 colon
  TGI: > 100 µM
UO-31 renal
  TGI: > 100 µM
